Results from patent US20240225053A9 (priority 2021, published 2024).
Where “and” joins values, the source holds several entries; their conditions need not be identical. Equal values may be shown once. Read-outs that look alike come from different tables or passages of the source.

Columns and labels:
[1] = system: Clostridium perfringens ATCC10873; assay type: cell-based; set-up: key: Good: Those in which agglomeration observed under upright microscope; Poor: Those in which no agglomeration observed under upright microscope; settings: Table 4, 500 mM
[2] = system: Lactobacillus casei ATCC393; assay type: cell-based; set-up: key to Agglomeration: Good: Those in which agglomeration observed under upright microscope; Poor: Those in which no agglomeration observed under upright microscope
[3] = system: Clostridium perfringens ATCC10873; assay type: cell-based; settings: for Shape: 500 mM, 8 hours; for Agglomeration (text) / Shape of the bacterial cells: Example 2 strains
[4] = system: Clostridium perfringens SM101 (CPE toxin producer); assay type: cell-based; set-up: key to Agglomeration: Good: Agglomeration effect observed; Poor: No agglomeration effect observed; settings: 500 mM
Escherichia coli MG1655 = assay type: cell-based; set-up: key: Good: Those in which agglomeration observed under upright microscope; Poor: Those in which no agglomeration observed under upright microscope
[5] = system: Clostridium perfringens CNEOP004 (netB toxin producer); assay type: cell-based; set-up: key to Agglomeration: Good: Agglomeration effect observed; Poor: No agglomeration effect observed; settings: 500 mM
[6] = system: Clostridium perfringens CNEOP004; assay type: cell-based; set-up: unit not given here; settings: bacterial cells, 500 mM, 8 hours, diluted 100 times
[7] = system: Clostridium perfringens ATCC10873; assay type: cell-based; set-up: key: Good: Agglomeration effect observed; Poor: No agglomeration effect observed; settings: 500 mM
[8] = system: Bifidobacterium animalis JCM1190; assay type: cell-based; set-up: key to Agglomeration: Good: Those in which agglomeration observed under upright microscope; Poor: Those in which no agglomeration observed under upright microscope
[9] = system: Clostridium perfringens ATCC10873; assay type: cell-based; set-up: key to Settling: Good: Settling effect observed; Poor: No settling effect observed; settings: for Settling: 37° C., 8 hours
[10] = system: Clostridium perfringens ATCC10873; assay type: cell-based; set-up: unit not given here; settings: bacterial cells, 500 mM, 8 hours, diluted 100 times
[11] = system: Clostridium perfringens SM101; assay type: cell-based; set-up: unit not given here; settings: bacterial cells, 500 mM, 8 hours, diluted 100 times
[12] = system: Salmonella enterica IAM1648; assay type: cell-based; set-up: key: Good: Those in which agglomeration observed under upright microscope; Poor: Those in which no agglomeration observed under upright microscope
[13] = system: mixed bacterial cells of Clostridium perfringens ATCC10873, Salmonella enterica IAM1648 and E. coli MG1655; assay type: cell-based; settings: 500 mM in combination with Arabic Gum 1%; OD660 about 2.0, 37° C.
[14] = set-up: species or system chickens (broilers, UK Chunky); settings: in vivo
Clostridium perfringens = assay type: in vivo, chickens (broilers); settings: for Dead birds Total: 500 chickens
[15] = Day 0-14, BMD 55 ppm, Coated-KCl 47 ppm in feed
[16] = Day 15-28, BMD 55 ppm, Coated-KCl 47 ppm in feed
[17] = Day 29-42, BMD 55 ppm, Coated-KCl 47 ppm in feed

Molecule: [Cl-].[Cl-].[Mg+2] [MgCl2]
- Agglomeration ([1]; W/AG 1%): Good
- Agglomeration ([1]; without AG): Poor
- Agglomeration [2]: Poor and Good
- Shape ([3]; w/AG 1%): Rod-shaped
- Shape ([3]; without AG): Rod-shaped
- Agglomeration (text) ([3]; absence of AG): no agglomeration was observed
- Shape of the bacterial cells ([3]; absence of AG): shape as bacilli remained unchanged
- Agglomeration (text) ([3]; coexistence with AG): agglomeration of Clostridium perfringens was observed
- Shape ([4]; w/AG 1%, 8 hours): Rod-shaped
- Shape ([4]; without AG, 8 hours): Rod-shaped
- Agglomeration ([4]; Table 2-2, w/AG 1%, 8 hours): Good
- Agglomeration ([4]; Table 2-2, without AG, 8 hours): Poor
- Agglomeration ([4]; Table 3-2, w/AG 1%): Good
- Agglomeration ([4]; Table 3-2, without AG): Good
- Agglomeration (Escherichia coli MG1655): Poor and Good
- Shape ([5]; w/AG 1%, 8 hours): Rod-shaped
- Shape ([5]; without AG, 8 hours): Rod-shaped
- Agglomeration ([5]; Table 2-3, w/AG 1%, 8 hours): Good
- Agglomeration ([5]; Table 2-3, without AG, 8 hours): Poor
- Agglomeration ([5]; Table 3-3, w/AG 1%): Good
- Agglomeration ([5]; Table 3-3, without AG): Good
- Zeta potential ([6]; w/AG 1%): −11.8
- Zeta potential ([6]; without AG): −12
- Agglomeration ([7]; Table 2-1, w/AG 1%, 8 hours): Good
- Agglomeration ([7]; Table 2-1, without AG, 8 hours): Poor
- Agglomeration ([7]; Table 3-1, W/AG 1%): Good
- Agglomeration ([7]; Table 3-1, without AG): Poor
- Agglomeration [8]: Poor
- Settling effect ([9]; 500 mM, absence of AG): did not exert a settling effect
- Settling effect ([9]; 500 mM, in combination with AG): exerted a settling effect
- Settling ([9]; 500 mM, w/AG 1%): Good
- Settling ([9]; 500 mM, without AG): Poor
- Concentration required for settling / at which settling was confirmed ([9]; absence of AG, optical density about 2.0 at 660 nm): over 500 mM
- Zeta potential ([10]; W/AG 1%): −12.9
- Zeta potential ([10]; without AG): −3.2
- Zeta potential ([11]; w/AG 1%): −10.2
- Zeta potential ([11]; without AG): −12.1
- Agglomeration [12]: Poor and Good

Molecule: [Cl-].[Na+] [NaCl]
- Shape ([3]; w/AG 1%): Spheroidal
- Shape ([3]; without AG): Spheroidal
- Agglomeration (text) ([3]; absence of AG): did not agglomerate
- Shape of the bacterial cells ([3]; absence of AG): changed from bacilli to cocci
- Agglomeration (text) ([3]; coexistence with AG): agglomerated in the state of cocci
- Agglomeration ([7]; Table 2-1, w/AG 1%, 8 hours): Good
- Agglomeration ([7]; Table 2-1, without AG, 8 hours): Poor
- Settling ([9]; 20 mM, without AG): Poor
- Settling ([9]; 100 mM, without AG): Poor
- Settling ([9]; 500 mM, w/AG 1%): Good
- Settling ([9]; 500 mM, without AG): Good
- Agglomeration of the three types of enteric bad bacteria [13]: can quickly agglomerate

Molecule: bacitracin methylene disalicylate [BMD]
- BWG %: versus Control (Non treatment) [14]: 106.0% and 103.9% and 103.5%
- Weight gain as compared with Control (Non treatment), in words [14]: weight gain was improved
- Dead birds Total (Clostridium perfringens; [15]): 19
- Dead birds NE Caused (Clostridium perfringens; [15]): 0
- Dead birds Total (Clostridium perfringens; [16]): 10
- Dead birds NE Caused (Clostridium perfringens; [16]): 4
- Dead birds Total (Clostridium perfringens; [17]): 6
- Dead birds NE Caused (Clostridium perfringens; [17]): 0
- NE Caused Mortality (Clostridium perfringens; average, 6 weeks, BMD 55 ppm, Coated-KCl 47 ppm in feed): 0.80
- NE Lesion Score (Clostridium perfringens; day 17, three birds per pen, 0 = none to 3 = severe, average, BMD 55 ppm, Coated-KCl 47 ppm): 0.30
- Mortality reduced to, as compared with Challenge Control (Clostridium perfringens; text b129): 13.2%
